Laboratory results from US20120083522A1, “MODULATION OF INFLAMMATORY RESPONSES BY FACTOR XI” (Isis Pharmaceuitcals, inc., priority 2009, published 2012).
In the oligonucleotide strings, read from the 5' end, every base follows the letter of its sugar. An asterisk marks phosphorothioate; unmarked linkages are phosphodiester. Other units and linkages are bracketed, terminal groups are in braces. A string of capitals states the bases alone. e = 2'-O-(2-methoxyethyl) (MOE); [5mC] = 5-methylcytosine; d = 2'-deoxy (DNA)

Key:
[1] = tested on: mouse Factor XI mRNA; assay: Cross-reactive antisense inhibition in primary mouse hepatocytes, 100 nM (Example 9); assay type: cell-based; conditions: approx. 24 h, percent inhibition relative to untreated control cells
Procedure: Antisense oligonucleotides targeted to a murine Factor XI nucleic acid were tested for their effects on Factor XI mRNA in vitro. Cultured primary mouse hepatocytes at a density of 10,000 cells per well were treated with 100 nM antisense oligonucleotide. After a treatment period of approximately 24 hours, RNA was isolated from the cells and mouse Factor XI mRNA levels were measured by quantitative real-time PCR. Factor XI mRNA levels were adjusted according to total RNA content, as measured by RIBOGREEN®. Results are presented as percent inhibition of Factor XI, relative to untreated control cells.
The chimeric antisense oligonucleotides in Tables 16 were designed as 5-10-5 MOE gapmers. The gapmers are 20 nucleotides in length, wherein the central gap segment is comprised of 10 2′-deoxynucleotides and is flanked on both sides (in the 5′ and 3′ directions) by wings comprising 5 nucleotides each. Each nucleotide in the 5′ wing segment and each nucleotide in the 3′ wing segment has a 2′-MOE modification. The internucleoside linkages throughout each gapmer are phosphorothioate (P═S) linkages. All cytidine residues throughout each gapmer are 5-methylcytidines. “Mouse target start site” indicates the 5′-most nucleotide to which the gapmer is targeted. “Mouse target stop site” indicates the 3′-most nucleotide to which the gapmer is targeted. All the mouse oligonucleotides listed show cross-reactivity between the mouse Factor XI mRNA (GENBANK Accession No. NM_028066.1), incorporated herein as SEQ ID NO: 6 and the human Factor XI mRNA (GENBANK Accession No. NM_000128.3), incorporated herein as SEQ ID NO: 1. “Human Target Start Site” indicates the 5′-most nucleotide in the human mRNA (GENBANK Accession No. NM_000128.3) to which the antisense oligonucleotide is targeted. “Human Target Stop Site” indicates the 3′-most nucleotide in the human mRNA (GENBANK Accession No. NM_000128.3) to which the antisense oligonucleotide is targeted. “Number of mismatches” indicates the mismatches between the mouse oligonucleotide and the human mRNA sequence.

[2] = Tolerability in Sprague-Dawley rats: body and organ weights (Example 23); assay type: in vivo; conditions: 50 mg/kg s.c. twice per week for 6 weeks; for Body weight: increase over PBS control weight before start of treatment; for Kidney weight / Liver weight / Spleen weight: percentage of the body weight
[3] = Tolerability in CD1 mice: liver function (Example 21); assay type: in vivo; parameters: Albumin: unit not given here; conditions: plasma, 50 mg/kg s.c. twice per week for 6 weeks
[4] = Tolerability in CD1 mice: hematology assays (Example 21); assay type: in vivo; conditions: 50 mg/kg s.c. twice per week for 6 weeks
[5] = Tolerability in Sprague-Dawley rats: hematology assays (Example 23); assay type: in vivo; parameters: RBC / WBC / Neutrophil / Lymphocyte / Platelets: unit not given here; conditions: blood
[6] = Tolerability in Sprague-Dawley rats: liver function (Example 23); assay type: in vivo; parameters: Albumin: unit not given here; conditions: plasma, 50 mg/kg s.c. twice per week for 6 weeks
[7] = Tolerability in CD1 mice: kidney function (Example 21); assay type: in vivo; conditions: plasma, 50 mg/kg s.c. twice per week for 6 weeks
[8] = Tolerability in Sprague-Dawley rats: kidney function (Example 23); assay type: in vivo; conditions: for BUN: plasma; for Total urine protein / Urine protein/creatinine ratio: total urine samples
[9] = Tolerability in CD1 mice: body and organ weights (Example 21); assay type: in vivo; conditions: 50 mg/kg s.c. twice per week for 6 weeks; for Body weight: increase over PBS control weight before start of treatment; for Kidney weight / Liver weight / Spleen weight: percentage of the body weight
Procedure: Body weight was measured at the onset of the study and subsequently twice per week. The body weights of the mice are presented in Table 87 and are expressed increase in grams over the PBS control weight taken before the start of treatment. Liver, spleen, and kidney weights were measured at the end of the study, and are also presented in Table 87 as percentage of the body weight.

404050 (antisense eT*eG*e[5mC]*eT*eT*dG*dA*dA*dG*dG*dA*dA*dT*dA*dT*e[5mC]*e[5mC]*eA*eG*eA) [compound 404050]
Inhibition of mouse Factor XI mRNA levels (column headed SEQ ID No.) [1]: 82

404054 (antisense eT*eA*eG*eT*eT*d[5mC]*dA*dT*dG*d[5mC]*d[5mC]*d[5mC]*dT*dT*d[5mC]*eA*eT*eG*eT*e[5mC]) [compound 404054]
Inhibition of mouse Factor XI mRNA levels (column headed SEQ ID No.) [1]: 45

404055 (antisense eT*eG*eT*eT*eA*dT*dA*dG*dT*dT*d[5mC]*dA*dT*dG*d[5mC]*e[5mC]*e[5mC]*eT*eT*e[5mC]) [compound 404055]
Inhibition of mouse Factor XI mRNA levels (column headed SEQ ID No.) [1]: 27

404066 (antisense eA*eA*eT*eG*eT*d[5mC]*d[5mC]*d[5mC]*dT*dG*dA*dT*dA*d[5mC]*dA*eA*eG*e[5mC]*e[5mC]*eA) [compound 404066]
Inhibition of mouse Factor XI mRNA levels (column headed SEQ ID No.) [1]: 37

404067 (antisense eG*eG*eG*eA*eA*dA*dA*dT*dG*dT*d[5mC]*d[5mC]*d[5mC]*dT*dG*eA*eT*eA*e[5mC]*eA) [compound 404067]
Inhibition of mouse Factor XI mRNA levels (column headed SEQ ID No.) [1]: 39

404083 (antisense eT*eG*eT*eG*e[5mC]*dA*dG*dA*dG*dT*d[5mC]*dA*d[5mC]*d[5mC]*dT*eG*e[5mC]*e[5mC]*eA*eT) [compound 404083]
Inhibition of mouse Factor XI mRNA levels (column headed SEQ ID No.) [1]: 47

404087 (antisense eT*eT*e[5mC]*eT*eT*dG*dA*dA*d[5mC]*d[5mC]*d[5mC]*dT*dG*dA*dA*eG*eA*eA*eA*eG) [compound 404087]
Inhibition of mouse Factor XI mRNA levels (column headed SEQ ID No.) [1]: 29

404089 (antisense eT*eG*eA*eA*eT*dT*dA*dT*d[5mC]*dA*dT*dT*dT*d[5mC]*dT*eT*eG*eA*eA*e[5mC]) [compound 404089]
Inhibition of mouse Factor XI mRNA levels (column headed SEQ ID No.) [1]: 6

404090 (antisense eT*eG*eA*eT*e[5mC]*dA*dT*dG*dA*dA*dT*dT*dA*dT*d[5mC]*eA*eT*eT*eT*e[5mC]) [compound 404090]
Inhibition of mouse Factor XI mRNA levels (column headed SEQ ID No.) [1]: 42

ACAGTTTCTGGCAGGCCTCG (antisense; all C 5-methyl, all phosphorothioate, sugars by position not given here; MOE gapmer, 5-10-5) [ISIS 412223, 5-10-5 MOE gapmer]
Body weight [2]: 126 g | Kidney weight [2]: 1.0% | Liver weight [2]: 5% | Spleen weight [2]: 0.5% | ALT [3]: 60 IU/L | AST [3]: 125 IU/L | Albumin [3]: 3.0 | Bilirubin [3]: 0.20 mg/dL | Cholesterol [3]: 117 mg/dL | HCT [4]: 48% | Hemoglobin [4]: 15 g/dL | Lymphocyte [4]: 4599 cells/μL | Monocytes [4]: 200 cells/μL | Neutrophil [4]: 1756 cells/μL | Platelets [4]: 862 10^3/μL | RBC [4]: 9 10^6/μL | WBC [4]: 7 10^3/μL | HCT [5]: 41% | Hemoglobin [5]: 13.1 g/dL | Lymphocyte [5]: 16990 | Neutrophil [5]: 1826 | Platelets [5]: 567 | RBC [5]: 7.2 | WBC [5]: 20 | ALT [6]: 85 IU/L | AST [6]: 180 IU/L | Albumin [6]: 5 | Bilirubin [6]: 0.14 mg/dL | BUN [7]: 28 mg/dL | creatinine [8]: 46 mg/dL | BUN [8]: 24 mg/dL | Total urine protein [8]: 224 mg/dL | Urine protein/creatinine ratio [8]: 4.6 | Body weight [9]: 12 g | Kidney weight [9]: 1.5% | Liver weight [9]: 6% | Spleen weight [9]: 0.4%

GCAGCGGACGGCATTGGTGC (antisense; all C 5-methyl, all phosphorothioate, sugars by position not given here; MOE gapmer, 5-10-5) [ISIS 412225, 5-10-5 MOE gapmer]
Body weight [2]: 184 g | Kidney weight [2]: 1.0% | Liver weight [2]: 4% | Spleen weight [2]: 0.5% | ALT [3]: 40 IU/L | AST [3]: 69 IU/L | Albumin [3]: 3.3 | Bilirubin [3]: 0.23 mg/dL | Cholesterol [3]: 128 mg/dL | HCT [4]: 50% | Hemoglobin [4]: 15 g/dL | Lymphocyte [4]: 4969 cells/μL | Monocytes [4]: 293 cells/μL | Neutrophil [4]: 1547 cells/μL | Platelets [4]: 574 10^3/μL | RBC [4]: 9 10^6/μL | WBC [4]: 7 10^3/μL | HCT [5]: 42% | Hemoglobin [5]: 13.4 g/dL | Lymphocyte [5]: 13204 | Neutrophil [5]: 1499 | Platelets [5]: 673 | RBC [5]: 7.4 | WBC [5]: 15 | ALT [6]: 48 IU/L | AST [6]: 108 IU/L | Albumin [6]: 5 | Bilirubin [6]: 0.15 mg/dL | BUN [7]: 23 mg/dL | creatinine [8]: 58 mg/dL | BUN [8]: 23 mg/dL | Total urine protein [8]: 209 mg/dL | Urine protein/creatinine ratio [8]: 4.0 | Body weight [9]: 10 g | Kidney weight [9]: 1.5% | Liver weight [9]: 6% | Spleen weight [9]: 0.4%

GCATTGGTGCACAGTTTCTG (antisense; all C 5-methyl, all phosphorothioate, sugars by position not given here; MOE gapmer, 5-10-5) [ISIS 412224, 5-10-5 MOE gapmer]
Body weight [2]: 165 g | Kidney weight [2]: 1.0% | Liver weight [2]: 5% | Spleen weight [2]: 0.5% | ALT [3]: 214 IU/L | AST [3]: 183 IU/L | Albumin [3]: 3.4 | Bilirubin [3]: 0.19 mg/dL | Cholesterol [3]: 114 mg/dL | HCT [4]: 50% | Hemoglobin [4]: 15 g/dL | Lymphocyte [4]: 6284 cells/μL | Monocytes [4]: 195 cells/μL | Neutrophil [4]: 2107 cells/μL | Platelets [4]: 647 10^3/μL | RBC [4]: 10 10^6/μL | WBC [4]: 9 10^3/μL | HCT [5]: 42% | Hemoglobin [5]: 13.4 g/dL | Lymphocyte [5]: 16807 | Neutrophil [5]: 1865 | Platelets [5]: 685 | RBC [5]: 7.4 | WBC [5]: 20 | ALT [6]: 84 IU/L | AST [6]: 132 IU/L | Albumin [6]: 4 | Bilirubin [6]: 0.12 mg/dL | BUN [7]: 29 mg/dL | creatinine [8]: 44 mg/dL | BUN [8]: 24 mg/dL | Total urine protein [8]: 171 mg/dL | Urine protein/creatinine ratio [8]: 3.8 | Body weight [9]: 10 g | Kidney weight [9]: 1.6% | Liver weight [9]: 6% | Spleen weight [9]: 0.5%
